# Results as given in PubChem BioAssay AID2060341 (Molecular Pharmacology Branch, DTP, NCI, 2025).
# Test system: 327498-153-R-J2-PDC multicell spheroid viability
# Assay: Anticancer human tumor 327498-153-R-J2-PDC patient-derived uterine carcinosarcoma cell line growth inhibition [IpAb]
# Conditions: for IC50: curve of first compound; for viability, T/C: stronger effect = lower value
# In short: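 Multi-cell spheroids of 60% tumour cells, 25% HUVEC and 15% MSC in ultra-low-attachment U-bottom wells, treated with agents combined with ipatasertib or abemaciclib. Half-log ranges top out near clinical Cmax, or 10 microM when Cmax is unknown.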
# [1] = second compound 0.1 µM, first compound 0.0316 µM
# [2] = second compound 0.1 µM, first compound 0.1 µM
# [3] = second compound 0.1 µM, first compound 0.316 µM
# [4] = second compound 0.1 µM, first compound 1 µM
# [5] = second compound 0.1 µM, first compound 3.16 µM
# [6] = second compound 0.1 µM, first compound 10 µM
# [7] = second compound 0.316 µM, first compound 0.0316 µM
# [8] = second compound 0.316 µM, first compound 0.1 µM
# [9] = second compound 0.316 µM, first compound 0.316 µM
# [10] = second compound 0.316 µM, first compound 1 µM
# [11] = second compound 0.316 µM, first compound 3.16 µM
# [12] = second compound 0.316 µM, first compound 10 µM
# [13] = second compound 1 µM, first compound 0.0316 µM
# [14] = second compound 1 µM, first compound 0.1 µM
# [15] = second compound 1 µM, first compound 0.316 µM
# [16] = second compound 1 µM, first compound 1 µM
# [17] = second compound 1 µM, first compound 3.16 µM
# [18] = second compound 1 µM, first compound 10 µM
# [19] = second compound 3.16 µM, first compound 0.0316 µM
# [20] = second compound 3.16 µM, first compound 0.1 µM
# [21] = second compound 3.16 µM, first compound 0.316 µM
# [22] = second compound 3.16 µM, first compound 1 µM
# [23] = second compound 3.16 µM, first compound 3.16 µM
# [24] = second compound 3.16 µM, first compound 10 µM
# [25] = second compound 10 µM, first compound 0.0316 µM
# [26] = second compound 10 µM, first compound 0.1 µM
# [27] = second compound 10 µM, first compound 0.316 µM
# [28] = second compound 10 µM, first compound 1 µM
# [29] = second compound 10 µM, first compound 3.16 µM
# [30] = second compound 10 µM, first compound 10 µM
# 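Note: spheroids exposed to agents for 7 days.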
# 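Throughout, for viability, T/C: 100% = DMSO vehicle control viability.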
structure (smiles),measurement,setting,value
CC1(C)CCC(CN2CCN(c3ccc(C(=O)NS(=O)(=O)c4ccc(NCC5CCOCC5)c([N+](=O)[O-])c4)c(Oc4cnc5[nH]ccc5c4)c3)CC2)=C(c2ccc(Cl)cc2)C1 + CC(C)NCC(C(=O)N1CCN(c2ncnc3c2C(C)CC3O)CC1)c1ccc(Cl)cc1,IC50,second compound 0.1 µM,5370 nM
same,IC50,second compound 0.316 µM,3980 nM
same,IC50,second compound 1 µM,3500 nM
same,IC50,second compound 3.16 µM,< 31.6 nM
same,IC50,second compound 10 µM,< 31.6 nM
same,"viability, T/C",[1],92.4%
same,"viability, T/C",[2],96.7%
same,"viability, T/C",[3],88.8%
same,"viability, T/C",[4],91.6%
same,"viability, T/C",[5],84.7%
same,"viability, T/C",[6],9.23%
same,"viability, T/C",[7],84.1%
same,"viability, T/C",[8],76.2%
same,"viability, T/C",[9],73%
same,"viability, T/C",[10],71.5%
same,"viability, T/C",[11],62.9%
same,"viability, T/C",[12],5.02%
same,"viability, T/C",[13],61.5%
same,"viability, T/C",[14],57.1%
same,"viability, T/C",[15],56%
same,"viability, T/C",[16],51.7%
same,"viability, T/C",[17],54.8%
same,"viability, T/C",[18],2.82%
same,"viability, T/C",[19],43.8%
same,"viability, T/C",[20],43.9%
same,"viability, T/C",[21],43.5%
same,"viability, T/C",[22],42.7%
same,"viability, T/C",[23],42.9%
same,"viability, T/C",[24],1.99%
same,"viability, T/C",[25],34.7%
same,"viability, T/C",[26],30.8%
same,"viability, T/C",[27],31.3%
same,"viability, T/C",[28],31.1%
same,"viability, T/C",[29],26.6%
same,"viability, T/C",[30],0.91%
CC(C)(C)c1cnc(CSc2cnc(NC(=O)C3CCNCC3)s2)o1 + CC(C)NCC(C(=O)N1CCN(c2ncnc3c2C(C)CC3O)CC1)c1ccc(Cl)cc1,IC50,second compound 0.1 µM,131 nM
same,IC50,second compound 0.316 µM,109 nM
same,IC50,second compound 1 µM,45.4 nM
same,IC50,second compound 3.16 µM,< 9.49 nM
same,IC50,second compound 10 µM,< 9.49 nM
same,"viability, T/C","second compound 0.1 µM, first compound 0.00949 µM",101%
same,"viability, T/C","second compound 0.1 µM, first compound 0.03 µM",103%
same,"viability, T/C","second compound 0.1 µM, first compound 0.0949 µM",69.1%
same,"viability, T/C","second compound 0.1 µM, first compound 0.3 µM",1.04%
same,"viability, T/C","second compound 0.1 µM, first compound 0.949 µM",0.63%
same,"viability, T/C","second compound 0.1 µM, first compound 3 µM",0.58%
same,"viability, T/C","second compound 0.316 µM, first compound 0.00949 µM",80.3%
same,"viability, T/C","second compound 0.316 µM, first compound 0.03 µM",82.2%
same,"viability, T/C","second compound 0.316 µM, first compound 0.0949 µM",56.9%
same,"viability, T/C","second compound 0.316 µM, first compound 0.3 µM",0.5%
same,"viability, T/C","second compound 0.316 µM, first compound 0.949 µM",0.5%
same,"viability, T/C","second compound 0.316 µM, first compound 3 µM",0.49%
same,"viability, T/C","second compound 1 µM, first compound 0.00949 µM",56.2%
same,"viability, T/C","second compound 1 µM, first compound 0.03 µM",57.9%
same,"viability, T/C","second compound 1 µM, first compound 0.0949 µM",37.6%
same,"viability, T/C","second compound 1 µM, first compound 0.3 µM",0.39%
same,"viability, T/C","second compound 1 µM, first compound 0.949 µM",0.44%
same,"viability, T/C","second compound 1 µM, first compound 3 µM",0.45%
same,"viability, T/C","second compound 3.16 µM, first compound 0.00949 µM",48%
same,"viability, T/C","second compound 3.16 µM, first compound 0.03 µM",45.8%
same,"viability, T/C","second compound 3.16 µM, first compound 0.0949 µM",28.7%
same,"viability, T/C","second compound 3.16 µM, first compound 0.3 µM",0.18%
same,"viability, T/C","second compound 3.16 µM, first compound 0.949 µM",0.36%
same,"viability, T/C","second compound 3.16 µM, first compound 3 µM",0.34%
same,"viability, T/C","second compound 10 µM, first compound 0.00949 µM",36.6%
same,"viability, T/C","second compound 10 µM, first compound 0.03 µM",38%
same,"viability, T/C","second compound 10 µM, first compound 0.0949 µM",15.1%
same,"viability, T/C","second compound 10 µM, first compound 0.3 µM",0.21%
same,"viability, T/C","second compound 10 µM, first compound 0.949 µM",0.55%
same,"viability, T/C","second compound 10 µM, first compound 3 µM",0.37%
Cn1nccc1Nc1nccc(-c2ccn(C(CO)c3ccc(Cl)c(F)c3)c(=O)c2)n1 (stereo not given) + CCN1CCN(Cc2ccc(Nc3ncc(F)c(-c4cc(F)c5nc(C)n(C(C)C)c5c4)n3)nc2)CC1,IC50,second compound 0.01 µM,3680 nM
same,IC50,second compound 0.0316 µM,1960 nM
same,IC50,second compound 0.1 µM,657 nM
same,IC50,second compound 0.316 µM,< 31.6 nM
same,IC50,second compound 1 µM,< 31.6 nM
same,"viability, T/C","second compound 0.01 µM, first compound 0.0316 µM",78%
same,"viability, T/C","second compound 0.01 µM, first compound 0.1 µM",70.3%
same,"viability, T/C","second compound 0.01 µM, first compound 0.316 µM",67%
same,"viability, T/C","second compound 0.01 µM, first compound 1 µM",74.3%
same,"viability, T/C","second compound 0.01 µM, first compound 3.16 µM",53.6%
same,"viability, T/C","second compound 0.01 µM, first compound 10 µM",26.7%
same,"viability, T/C","second compound 0.0316 µM, first compound 0.0316 µM",69.1%
same,"viability, T/C","second compound 0.0316 µM, first compound 0.1 µM",55.4%
same,"viability, T/C","second compound 0.0316 µM, first compound 0.316 µM",52.8%
same,"viability, T/C","second compound 0.0316 µM, first compound 1 µM",57.9%
same,"viability, T/C","second compound 0.0316 µM, first compound 3.16 µM",48%
same,"viability, T/C","second compound 0.0316 µM, first compound 10 µM",30.4%
same,"viability, T/C",[1],55.6%
same,"viability, T/C",[2],50%
same,"viability, T/C",[3],48.5%
same,"viability, T/C",[4],49.2%
same,"viability, T/C",[5],44%
same,"viability, T/C",[6],26.4%
same,"viability, T/C",[7],53.5%
same,"viability, T/C",[8],42.6%
same,"viability, T/C",[9],42.4%
same,"viability, T/C",[10],44.4%
same,"viability, T/C",[11],41.5%
same,"viability, T/C",[12],28.1%
same,"viability, T/C",[13],46.1%
same,"viability, T/C",[14],45.3%
same,"viability, T/C",[15],40.3%
same,"viability, T/C",[16],43.6%
same,"viability, T/C",[17],45.3%
same,"viability, T/C",[18],30.4%
Cn1nccc1Nc1nccc(-c2ccn(C(CO)c3ccc(Cl)c(F)c3)c(=O)c2)n1 (stereo not given) + CC(C)NCC(C(=O)N1CCN(c2ncnc3c2C(C)CC3O)CC1)c1ccc(Cl)cc1,IC50,second compound 0.1 µM,3260 nM
same,IC50,second compound 0.316 µM,684 nM
same,IC50,second compound 1 µM,< 31.6 nM
same,IC50,second compound 3.16 µM,< 31.6 nM
same,IC50,second compound 10 µM,< 31.6 nM
same,"viability, T/C",[1],87.2%
same,"viability, T/C",[2],77.7%
same,"viability, T/C",[3],71.4%
same,"viability, T/C",[4],71.7%
same,"viability, T/C",[5],47.9%
same,"viability, T/C",[6],28.4%
same,"viability, T/C",[7],68.3%
same,"viability, T/C",[8],59.6%
same,"viability, T/C",[9],49.1%
same,"viability, T/C",[10],51.7%
same,"viability, T/C",[11],40.9%
same,"viability, T/C",[12],22.5%
same,"viability, T/C",[13],49.2%
same,"viability, T/C",[14],42.4%
same,"viability, T/C",[15],33.8%
same,"viability, T/C",[16],38.2%
same,"viability, T/C",[17],30.5%
same,"viability, T/C",[18],11.9%
same,"viability, T/C",[19],33.9%
same,"viability, T/C",[20],30.4%
same,"viability, T/C",[21],28.1%
same,"viability, T/C",[22],27.7%
same,"viability, T/C",[23],20%
same,"viability, T/C",[24],9.15%
same,"viability, T/C",[25],28.5%
same,"viability, T/C",[26],21.5%
same,"viability, T/C",[27],18%
same,"viability, T/C",[28],17.3%
same,"viability, T/C",[29],15.8%
same,"viability, T/C",[30],4.13%
